Test results taken from patent publication US5274002A, “Trisubstituted phenyl analogs having activity for congestive heart failure” (Warner-Lambert Company, priority 1990, dated 1993).

How the values were obtained:
[1] = test system: isolated Langendorff rat heart; experiment: isolated Langendorff rat heart (CVIH), coronary flow; conditions: In Vitro Langendorf Isolated Rat Heart, constant perfusion pressure 70 mm Hg, 37° C.; for EC25: read-out: EC 25 (Coronary Flow); for EC50: read-out: EC 50 (Coronary Flow)
Method: TEST FOR INOTROPIC, CHRONOTROPIC, AND VASCULAR ACTIVITIES IN THE ISOLATED LANGENDORFF RAT HEART (CVIH)
Male rats (400-600 gms) are pretreated with 2000 units Na heparin (Parke-Davis) and anesthetized with Na pentobarbital (50 mg/kg, Butler Co.) administered intraperitoneally. Once anesthetized, the rat heart is rapidly excised, the ascending aorta fitted to the aortic perfusion cannula, and secured with a ligature. The coronary arteries were perfused initially at a rate of about 15 ml/min for two to three minutes, after which they are perfused at constant pressure of 70 mm Hg and temperature of 37° C. The electrocardiogram (ECG) is recorded using two platinum electrodes positioned at the base and apex of the left ventricle. A second heart is excised, cannulated, and perfused by the same method outlined above. Both hearts are tested in parallel. The standard physiological salt solution (PSS) is a modified Krebs-Hanseleit bicarbonate buffer of the following composition in mM concentration: NaCl, 127; NaHCO3, 25; dextrose, 5.5; Na Pyruvate, 2.0; KCl, 4.7;MgSO4, 1.1; KH2 PO4, 1.2; CaCl2 ·2H2O, 2.5; CaNa2 EDTA, 0.05.
A 30-minute stabilization period is observed before starting the test protocol.
Microprocessor Controlled Coronary Perfusion and Drug Delivery System
The microprocessor control system is a servo mechanism which permits coronary perfusion pressure (CPP) and drug concentration to be maintained constant independent of changes in coronary flow. The level at which CPP and drug concentration are maintained can be changed by commands communicated through the microprocessor keyboard. Dose-response curves are carried out by perfusing a solution at a specified drug concentration (DC) at rates proportional to total coronary flow (CFT). Drug concentrations are increased by proportionate increases in the rate of DC infusion over CFT via the microprocessor keyboard. The proportional flow rates for DC:CFT is about 0.0002:1 at the low end and 0.02:1 at the high end of the dose-response curve. Dose-response curves encompassing at least two log doses are carried out by preparing two DCs with a concentration difference of 1:100. Following the first dose range of two log doses, the DC is switched, proportional pumping rate adjusted, and the dose-response curve continued for another two log doses. The standard dose-response curve is carried out in one-half log dose increments starting at a subthreshold dose and ending at a dose which produces near maximal response in activity. Standard reference compounds are tested over the range of 10^-9 to 10^-6 M.
Measurements are for coronary flow (CF). Units are: CF, milliliters/minute (ml/min). CF is calculated by recording analog outputs from pumps 1 and 2. Outputs from pump #1=CFT and the output from pump #2=CF for heart B (CFB) CF for heart A (CFA) is calculated (CFT -CFB =CFA).
Using the above coronary blood flow evaluation technique, the effects of the compounds of each indicated example is shown as the EC (effective concentration) 25/(effective concentration) EC 50.

[2] = test system: anesthetized dog; experiment: in vivo myocardial inotropic activity in the anesthetized dog; conditions: 1.0 mg/kg, change from control data prior to dosing
Method: TEST FOR IN VIVO MYOCARDIAL INOTROPIC ACTIVITY IN THE ANESTHETIZED DOG
Adult mongrel dogs of either sex are anesthetized with pentobarbital, 35 mg/kg, IV, and are maintained under anesthesia with a continuous infusion of pentobarbital, 3.5 mg/kg/hr. The trachea is intubated, but the animals are permitted to breathe spontaneously. A cannula is inserted into the femoral vein for administering test agents. A Millar catheter tip pressure transducer or a fluid filled catheter is inserted into the ascending aorta via the femoral artery for measuring pressure. A Millar catheter tip pressure transducer is passed into the left ventricle via the left carotid artery for measuring left ventricular blood pressure. Needle electrodes are placed subcutaneously for recording a lead II electrocardiogram. Before administering test agents, control data is acquired over a period of at least thirty minutes.
The test agent is dissolved in dimethylacetamide. Each dose is administered in a volume of 0.5 ml over a period of one minute. Appropriate vehicle controls are also administered.
When tested by this protocol, representative compounds of formula I, when administered at a dose of 1 mg/kg, produced an increase in contractility, a minimal increase in blood pressure, and an increase in heart rate as shown in the following Table B.

Structure (SMILES)	EC25 [1] [µM]	EC50 [1] [µM]	Blood Pressure, percent increase (+) or decrease (-) from control data [2]	Contractility, percent increase (+) or decrease (-) from control data [2]	Heart Rate, percent increase (+) or decrease (-) from control data [2]
COC(=O)/C=C/c1ccc(OC)c(OC2CCCC2)c1 [Example 3, Methyl 3-(3-cyclopentoxy-4-methoxyphenyl)-E-propenoate]	2	> 500	+16%	+77%	+20%
COC(=O)CCc1ccc(OC)c(OC2CCCC2)c1 [Example 9, Methyl 3-(3-cyclopentoxy-4-methoxyphenyl)-n-propionate]	15	22	+5%	+36%	+41%
COc1ccc(CCC(=O)O)cc1OC1CCCC1 [Example 13, 3-(3-Cyclopentoxy-4-methoxyphenyl)-n-propanoic acid]	4	15	+9%	+47%	+23%
COc1ccc(CCC(N)=O)cc1OC1CCCC1 [Example 16, 3-(3-Cyclopentoxy-4-methoxyphenyl)-n-propionyl amide]	3	10	+5%	+127%	+25%
COc1ccc(CCCO)cc1OC1CCCC1 [Example 19, 3-(3-Cyclopentoxy-4-methoxyphenyl)-n-1-propanol]	2	7	+9%	+91%	+25%
COc1ccc(/C=C/C=O)cc1OC1CCCC1 [Example 21, 3-(3-Cyclopentoxy-4-methoxyphenyl)-E-propene-1-aldehyde]	1.1	2	-1%	+62%	+35%
